In PMC6831561, “Pharmacological and Behavioral Effects of the Synthetic Cannabinoid AKB48 in Rats” (Frontiers in Neuroscience, 2019):

How the values were obtained:
extracellular DA levels = assay: In vivo brain microdialysis of DA (NAc shell, NAc core, mPFC); design: species or system rats
Text: Male Sprague-Dawley rats were anaesthetized with isoflurane gas, and maintained under anaesthesia using a breathing tube under a scavenging system while placed in a stereotaxic apparatus and implanted with vertical dialysis probes (1.5 or 3 mm dialyzing portion for NAc or mPFC, respectively) in the NAc shell (A + 2.2, L + 1.0 from bregma, V-7.8 from dura) or core (A + 1.4; L + 1.6 from bregma; V-7.6 from dura) or in the mPFC (A + 3.7, L + 0.8 from bregma, V-5.0 from dura), according to the rat brain atlas ([Paxinos and Watson, 1998]).
On the day following surgery, probes were perfused with Ringer’s solution (147 mM NaCl, 4 mM KCl, 2.2 mM CaCl2) at a constant rate of 1 μL/min. Dialyzate samples (10 μL) were injected into an HPLC equipped with a reverse-phase column (C8 3.5 μm, Waters, United States) and a coulometric detector (ESA, Coulochem II) to quantify DA. The first electrode of the detector was set at + 130 mV (oxidation), and the second at −175 mV (reduction). The composition of the mobile phase was: 50 mM NaH2PO4, 0.1 mM Na2-EDTA, 0.5 mM n-octyl sodium sulfate, 15% (v/v) methanol, pH 5.5. The sensitivity of the assay for DA was 5 fmol/sample. At the end of the experiment, animals were sacrificed and their brains removed and stored in formalin (8%) for histological examination to verify the correct placement of the microdialysis probe.

rats [1] = assay: Open field test and gross behavior test; assay type: in vivo
Method: An open field, used to measure locomotor activity, consisted of a wooden chamber (45 cm high) with a circular base (75 cm diameter). The floor was divided into 12 sections of similar area by two concentric circles and radial segments. The apparatus was placed in a sound-proof room, illuminated by a white 80 W lamp placed 200 cm over the center of the arena. Rat behavior in the test sessions was videotaped, analyzed, and scored. The following parameters were measured: time spent in the central or peripheral area, locomotor activity, and number of rearing reactions. Each of the behavioral parameters was scored manually by a tally counting method. The behavioral parameters scored were head twitches, wet dog shakes, grooming, licking, number of defecations, and tail rigidity. In the open field test, 21 male Sprague-Dawley rats were used and divided into three groups (n = 7 per group) and received different doses of AKB48 according to the CPP protocol. After treatment, the animals were leaved undisturbed for 10 min in the arena and then observed for 30 min.

rats [2] = assay: Cardiorespiratory analysis (heart rate, breath rate, SpO2); assay type: in vivo
Text: During the experiment, the rat was allowed to freely move in a cage (40 × 40 × 30 cm) with no access to food and water while being monitored by the sensor collar through MouseOx Plus (STARR Life Sciences® Corp., Oakmont, PA, United States) software. In the first hour of acclimation, a fake collar similar to the real one used in the test but with no sensor was used to minimize the potential stress during the experiment. Then, the real collar (with sensor) was replaced, and baseline parameters were monitored for 60 min.

[3] = AKB48 0.1 and 0.5 mg/kg i.p., both doses
[4] = AKB48 highest dose (3 mg/kg), after 60 min from injection

## CCCCCn1nc(C(=O)NC23CC4CC(CC(C4)C2)C3)c2ccccc21 [AKB48, N-(1-adamantyl)-1-pentyl-1H-indazole-3-carboxamide]
Extracellular DA levels; AKB48 0.25 mg/kg i.p.
  DA levels in the NAc shell: increased
Extracellular DA levels; AKB48 0.25 mg/kg ip, at 20 and 40 min
  max increase of DA in the NAc shell: about 40%
Extracellular DA levels; AKB48 0.125 and 0.25 mg/kg i.p.
  DA levels in the mPFC: No significant effects
Extracellular DA levels; AKB48 lower or higher doses (0.125 and 0.5 mg/kg i.p.)
  DA levels in the NAc shell: ineffective
Rats [1]; AKB48 0.5 mg/kg
  distance traveled in the central area: reduced
  time spent in the central area: reduced
  total distance traveled: reduced
Rats [1]; AKB48 0.1 and 0.5 mg/kg i.p.
  amount of defecation: did not affect
  grooming: did not affect
  head shaking: did not affect
  rearing: no effect
  spontaneous locomotor activity: reduced
  wet dog shaking: did not affect
Rats [1]; [3]
  licking: decrease
  tail rigidity: significant increase
Rats [2]; AKB48 3.0 mg/kg i.p.
  duration of the heart rate decrease: about 90 min
  time at which the heart rate effect disappeared: 180 min
Rats [2]; AKB48 3.0 mg/kg i.p., after 30 min from injection
  reduction of heart rate: ~36%
Rats [2]; AKB48 highest dose (3 mg/kg)
  time at which the SpO2 effect disappeared: 120 min
  time at which the breath rate effect disappeared: 120 min
Rats [2]; [4]
  reduction of SpO2 saturation: ~10%
  reduction of breath rate: ~30%
